The values that follow come from patent publication US11311590B2, “Anti-inflammatory botanical extract” (Innophos, Inc., priority 2018, dated 2022).

The test system of this assay is potato 5-Lipoxygenase enzyme. In words: Lipoxygenase Inhibitor Screening Assay Kit (Cayman) with potato 5-Lipoxygenase. The format is biochemical. The settings on record: positive control at 100 μM.

Procedure: Research grade reagents were used for the rest of the assay preparations. Extracts were dissolved in dimethyl sulfoxide (‘DMSO’) to a final concentration of 50 mg/mL, and then diluted in appropriate buffer for each bioassay to working concentrations.
This kit measures hydroperoxides produced in the lipoxygenation reaction.
The extracts were dissolved in methanol to final working concentrations. 5-LOX enzyme, Chromagen, and Linoleic Acid solutions were prepared immediately before use. Nordihydroguaiaretic acid (‘NDGA’) was used as a positive control. 5-LOX enzyme was added to the test samples and controls and incubated for five minutes at room temperature to allow for enzyme/inhibitor interaction. Linoleic acid substrate was added to the plate to initiate the reaction, and the plate was then shaken at room temperature for 10 minutes. Chromagen was added to visualize the hydroperoxides formed during the reaction and the plate was shaken at room temperature for another five minutes. The absorbance was then read at 492 nm. Percent inhibition of the extract concentration was calculated in comparison to the uninhibited control wells.

`CC(Cc1ccc(O)c(O)c1)C(C)Cc1ccc(O)c(O)c1` (stereo not shown) [NDGA, Nordihydroguaiaretic acid] displayed a 5-LOX enzyme inhibition of 100%.
